Key:
Assay type in all cases: in vivo
[1] = test system: monocotylidonous and dicotylidonous weed and crop plants; assay: Herbicidal pre-emergence action; conditions: 320 g/ha, visual assessment after three weeks, 100% = plants have died; for herbicidal effect in percent, ALOMY: ALOMY = Alopecurus myosuroides; for herbicidal effect in percent, AVEFA: AVEFA = Avena fatua; for herbicidal effect in percent, ECHCG: ECHCG = Echinochloa crus-galli; for herbicidal effect in percent, LOLMU: LOLMU = Lolium multiflorum; for herbicidal effect in percent, SETVI: SETVI = Setaria viridis; for herbicidal effect in percent, VIOTR: VIOTR = Viola tricolor
Excerpt: 1. Herbicidal Pre-Emergence Action
• Seeds of monocotylidonous and dicotylidonous weed and crop plants are placed in sandy loam in wood fibre pots and covered with soil. The test compounds, formulated in the form of wettable powders (WP), are then, as an aqueous suspension with a water application rate of 600 l/ha (converted), with 0.2% of wetting agent added, applied to the surface of the covering soil in different amounts. • After the treatment, the pots are placed in a greenhouse and kept under good growth conditions for the test plants. The visual assessment of the emergence damage on the test plants is carried out after a trial period of three weeks by comparison with the untreated controls (herbicidal effect in percent: 100% effect=the plants have died, 0% effect=like control plants).

[2] = test system: ALOMY; assay: Herbicidal post-emergence action; conditions: 80 g/ha, visual assessment after about three weeks, 100% = plants have died
Description: (§1) 2. Herbicidal Post-Emergence Action
(§2) • Seeds of monocotylidonous and dicotylidonous weed and crop plants are placed in sandy loam in wood fibre pots, covered with soil and cultivated in a greenhouse under good growth conditions. Two to three weeks after sowing, the test plants are treated at the one-leaf stage. The test compounds, formulated as wettable powders (WP), are then with a water application rate of 600 l/ha (converted), with 0.2% of wetting agent added, sprayed onto the green parts of the plants in different amounts. After the test plants have been kept in the greenhouse under optimum growth conditions for about three weeks, the effect of the preparations is assessed visually in comparison to untreated controls (herbicidal effect in percent: 100% effect=the plants have died, 0% effect=like control plants). Post-Emergence, 80 g/ha

[3] = test system: ECHCG; assay: Herbicidal post-emergence action; conditions: 80 g/ha, visual assessment after about three weeks, 100% = plants have died
Description: as §1, §2

[4] = test system: LOLMU; assay: Herbicidal post-emergence action; conditions: 80 g/ha, visual assessment after about three weeks, 100% = plants have died
Description: as §1, §2

[5] = test system: SETVI; assay: Herbicidal post-emergence action; conditions: visual assessment after about three weeks, 100% = plants have died; for herbicidal effect in percent, SETVI: 80 g/ha; for pest or weed control at 80 g/ha: 504 h, read-out: herbicidal effect in percent, SETVI
Description: as §1, §2

[6] = test system: AVEFA; assay: Herbicidal post-emergence action; conditions: 80 g/ha, visual assessment after about three weeks, 100% = plants have died
Description: as §1, §2

| SMILES | herbicidal effect in percent, ALOMY [1] [%] | herbicidal effect in percent, AVEFA [1] [%] | herbicidal effect in percent, ECHCG [1] [%] | herbicidal effect in percent, LOLMU [1] [%] | herbicidal effect in percent, SETVI [1] [%] | herbicidal effect in percent, VIOTR [1] [%] | herbicidal effect in percent, ALOMY [2] [%] | herbicidal effect in percent, ECHCG [3] [%] | herbicidal effect in percent, LOLMU [4] [%] | herbicidal effect in percent, SETVI [5] [%] | herbicidal effect in percent, AVEFA [6] [%] | pest or weed control at 80 g/ha [5] [%] |
| --- | --- | --- | --- | --- | --- | --- | --- | --- | --- | --- | --- | --- |
| CCc1cc(C)cc(CC)c1C1C(=O)C2CC(C3OCCO3)CC2C1=O (stereo not shown) [I-a-10] | 100 | 90 | 100 | 100 | 100 | 90 | 100 | 100 | 100 | 100 | 100 | – |
| CCc1cc(C)cc(CC)c1C1=C(OC(=O)C(C)(C)C)C2CC(C3OCCO3)CC2C1=O (mixture of isomers) [I-b-4] | 100 | 90 | 100 | 100 | 100 | 90 | 100 | 100 | 100 | 100 | 90 | – |
| CCOC(=O)OC1=C(c2c(CC)cc(C)cc2CC)C(=O)C2CC(C(C)=O)CC12 (mixture of isomers) [I-c-17] | – | – | – | – | – | – | 90 | 90 | 100 | 80 | 90 | – |
| CCOC(=O)CC1CC2C(=O)C(c3c(CC)cc(C)cc3CC)=C(OC(=O)OCC)C2C1 (mixture of isomers) [I-c-16] | – | – | – | – | – | – | – | 80 | – | 80 | – | – |
| CCc1cc(C)cc(CC)c1C1C(=O)C2CC(C#N)CC2C1=O (stereo not shown) [I-a-4, 5-(2,6-Diethyl-4-methylphenyl)-4,6-dioxooctahydropentalene-2-carbonitrile] | – | – | 100 | – | 90 | – | 50 | 100 | 60 | – | 90 | 100 |
| CCc1cc(C)cc(CC)c1C1=C(OC(=O)C(C)(C)C)C2CC(C3OCCCO3)CC2C1=O (mixture of isomers) [I-b-3] | 100 | 90 | 100 | 100 | 100 | 90 | 100 | 100 | 100 | – | – | – |
| CCOC(=O)OC1=C(c2c(CC)cc(C)cc2CC)C(=O)C2CC(COC(C)=O)CC12 (mixture of isomers) [I-c-15] | – | – | – | – | – | – | – | 90 | 90 | 80 | – | – |
| CCc1cc(C)cc(CC)c1C1C(=O)C2CC(CSC)CC2C1=O (mixture of isomers) [I-a-60] | – | – | – | – | – | – | 90 | 100 | 90 | 90 | 90 | – |
| CCOC(=O)OC1=C(c2c(CC)cc(C)cc2CC)C(=O)C2CC(C(C)=NOC)CC12 (mixture of isomers) [I-c-18] | – | – | – | – | – | – | 100 | 90 | 100 | – | 80 | – |
| CCOC(=O)OC1=C(c2c(CC)cc(C)cc2CC)C(=O)C2CC(CCC(C)=NOC)CC12 (mixture of isomers) [I-c-24] | – | – | – | – | – | – | 90 | 100 | 100 | 100 | 80 | – |
| CCc1cc(C)cc(CC)c1C1C(=O)C2CC(C(C)=O)CC2C1=O (mixture of isomers) [I-a-33] | – | – | – | – | – | – | 100 | 100 | 100 | 90 | 100 | – |
| CCc1cc(C)cc(CC)c1C1C(=O)C2CC(C(C)=NOC)CC2C1=O (mixture of isomers) [I-a-34] | – | – | – | – | – | – | 100 | 100 | 100 | 90 | – | – |
| CCOC(=O)OC1=C(c2c(CC)cc(C)cc2CC)C(=O)C2CC(CCC#N)CC12 (mixture of isomers) [I-c-21] | – | – | – | – | – | – | – | 100 | 100 | 90 | 100 | – |
| CCc1cc(C)cc(CC)c1C1C(=O)C2CC(C=O)CC2C1OC(=O)C(C)(C)C (stereo not shown) [I-b-2, 2-(2,6-diethyl-4-methylphenyl)-5-formyl-3-oxooctahydropentalen-1-yl 2,2-dimethylpropanoate] | 80 | 80 | 100 | 100 | 90 | – | – | 100 | – | – | – | 100 |
| Cc1cc(C)c(C2C(=O)C3CC(C4OCCCO4)CC3C2=O)c(C)c1 (mixture of isomers) [I-a-32] | – | – | – | – | – | – | – | 80 | 90 | 90 | – | – |
| Cc1cc(C)c(C2C(=O)C3CC(C4OCCO4)CC3C2=O)c(C)c1 (mixture of isomers) [I-a-30] | – | – | – | – | – | – | – | 90 | 90 | 90 | – | – |
| CCc1cc(C)cc(CC)c1C1C(=O)C2CC(CCC(C)=NOC)CC2C1=O (racemic) [I-a-42, 2-(2,6-diethyl-4-methylphenyl)-5-[3-methoxyiminobutyl]-tetrahydropentalene-1,3-dione] | – | – | – | – | – | – | 90 | 100 | 100 | – | 100 | 100 |
| CCOC(=O)CC1CC2C(=O)C(c3c(CC)cc(C)cc3CC)=C(OCC)C2C1 (mixture of isomers) [I-a-81] | – | – | – | – | – | – | 80 | 80 | 80 | 90 | – | – |
| CCc1cc(C)cc(CC)c1C1=C(OC(=O)OC(C)C)C2CC(C=NOC)CC2C1=O (mixture of isomers) [I-c-14] | – | – | – | – | – | – | 100 | 100 | 100 | 100 | 100 | – |
| CCc1cc(C)cc(CC)c1C1C(=O)C2CC(C(C)O)CC2C1=O (mixture of isomers) [I-a-41] | – | – | – | – | – | – | 100 | 100 | 100 | 100 | 100 | – |
| CCc1cc(C)cc(CC)c1C1=C(OCc2ccccc2)C2CC(CBr)CC2C1=O (mixture of isomers) [I-a-61] | – | – | – | – | – | – | – | 90 | 90 | 90 | – | – |
| CCc1cc(C)cc(CC)c1C1=C(OC(=O)C(C)C)C2CC(COC(C)=O)CC2C1=O (mixture of isomers) [I-b-23] | – | – | – | – | – | – | 80 | 100 | 90 | 90 | 90 | – |
| CCc1cc(C)cc(CC)c1C1C(=O)C2CC(CCC(C)=O)CC2C1=O (stereo not shown) [I-a-39, 2-(2,6-diethyl-4-methylphenyl)-5-(3-oxobutyl)-tetrahydropentalene-1,3-dione] | – | – | – | – | – | – | 100 | 100 | 100 | – | – | 100 |
| Cc1cc(C)c(C2C(=O)C3CC(C=NOC(C)C)CC3C2=O)c(C)c1 (mixture of isomers) [I-a-31] | – | – | – | – | – | – | 90 | 90 | 90 | 100 | 80 | – |
